Data from publication PMC2635027 (The Journal of Biological Chemistry, 2009).

What was measured:
BHK21 cells = type: cell-based, hamster; conditions: BHK21 cells at 4 °C; 10 μM; confocal microscopy
[1] = system: BHK21-tTA/anti-CHC cell line; type: cell-based, hamster; conditions: +tet control cells; peptides 10 μM, Tf 10 μg/ml; 37 °C; confocal microscopy
[2] = system: BHK21-tTA/anti-CHC cell line; conditions: absence of tetracycline for 2 days; cited from earlier work

## YARAARQARA [PTD4, TAMRA-PTD4 (YARAARQARA)]
BHK21 cells
  intracellular fluorescently labeled vesicles, in words: not observed
[1]
  vesicular (endocytic) uptake, in words: presence of PTD4-containing vesicles

## transferrin: transferrin conjugated to Alexa Fluor 633, marker for clathrin-dependent endocytosis
[2]
  inhibition of transferrin internalization: 90%
[1]
  vesicular (endocytic) uptake, in words: internalized at high rates
